Target: T1, Human MTHFD2 (Homo sapiens, UniProt P13995)
T1 construct: residues 36-350 in Uniport ID P13995; His6 (N); made in house; host or cells: E. coli
T1 sequence (P13995 36-350): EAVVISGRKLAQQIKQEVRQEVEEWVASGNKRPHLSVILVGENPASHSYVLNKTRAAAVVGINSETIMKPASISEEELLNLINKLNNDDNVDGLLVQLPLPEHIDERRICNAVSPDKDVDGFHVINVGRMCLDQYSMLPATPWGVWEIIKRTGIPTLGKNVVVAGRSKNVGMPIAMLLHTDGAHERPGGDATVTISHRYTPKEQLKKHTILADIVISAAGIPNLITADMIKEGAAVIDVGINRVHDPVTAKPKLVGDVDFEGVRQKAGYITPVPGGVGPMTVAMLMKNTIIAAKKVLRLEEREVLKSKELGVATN
Experiment: MTHFD2 Activity Assay (dehydrogenase activity, diaphorase/resazurin coupled fluorescence)
Assay type: biochemical
Conditions: inhibitory activity (IC50 and/or binding constant); 0.2 nM MTHFD2, 11 concentrations
Method in brief: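 His6-tagged MTHFD2 (res. 36-350), E. coli-expressed, at 0.2 nM preincubated with compound 15 min in Hepes pH 8.0/MgCl2/KH2PO4 buffer; 70 μM CH2-THF, 1 mM NAD+ added with resazurin/diaphorase, 30 min, EDTA stop. Resorufin fluorescence (ex 525/em 598); IC50 from 11-point 4-parameter fit.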

| IC50 [nM] | Structure (SMILES) |
| --- | --- |
| 1000 to 5000 | Cn1c(N[C@@H]2CCC[C@@H]2C(=O)O)nc2c1c(=O)n(Cc1ccc(C(F)(F)F)cc1)c(=O)n2C [Example 110, (1S,2R)-2-(3,7-dimethyl-2,6-dioxo-1-(4-(trifluoromethyl)benzyl)-2,3,6,7-tetrahydro-1H-purin-8-ylamino)cyclopentanecarboxylic acid] |
| 1000 to 5000 | Cn1c(NC2CC(F)(F)C2)nc2c1c(=O)n(Cc1ccc(Cl)c(Cl)c1)c(=O)n2C [Example 112, 1-(3,4-dichlorobenzyl)-8-(3,3-difluorocyclobutylamino)-3,7-dimethyl-1H-purine-2,6(3H,7H)-dione] |
| > 10000 | Cn1c(N[C@@H]2CCCC[C@H]2O)nc2c1c(=O)n(Cc1ccc(C(F)(F)F)cc1)c(=O)n2C [Example 113, 8-((1R,2R)-2-hydroxycyclohexylamino)-3,7-dimethyl-1-(4-(trifluoromethyl)benzyl)-1H-purine-2,6(3H,7H)-dione] |
| 1000 to 5000 | Cn1c(NCc2cccnc2)nc2c1c(=O)n(Cc1ccc(Cl)c(Cl)c1)c(=O)n2C [Example 117, 1-(3,4-dichlorobenzyl)-3,7-dimethyl-8-(pyridin-3-ylmethylamino)-1H-purine-2,6(3H,7H)-dione] |
| > 10000 | Cn1c(N[C@H](CO)CC2CCCCC2)nc2c1c(=O)n(Cc1ccc(C(F)(F)F)cc1)c(=O)n2C [Example 120, (S)-8-(1-cyclohexyl-3-hydroxypropan-2-ylamino)-3,7-dimethyl-1-(4-(trifluoromethyl)benzyl)-1H-purine-2,6(3H,7H)-dione] |
| 10 to 1000 | Cn1c(N[C@H](CO)CC2CCCCC2)nc2c1c(=O)n(Cc1ccc(Cl)c(Cl)c1)c(=O)n2C [Example 121, (S)-8-(1-cyclohexyl-3-hydroxypropan-2-ylamino)-1-(3,4-dichlorobenzyl)-3,7-dimethyl-1H-purine-2,6(3H,7H)-dione] |
| 5000 to 10000 | Cn1c(Nc2ncco2)nc2c1c(=O)n(Cc1ccc(Cl)c(Cl)c1)c(=O)n2C [Example 123, 1-(3,4-dichlorobenzyl)-3,7-dimethyl-8-(oxazol-2-ylamino)-1H-purine-2,6(3H,7H)-dione] |
| 10 to 1000 | Cn1c(NC2(CO)CCCC2)nc2c1c(=O)n(Cc1ccc(Cl)c(Cl)c1)c(=O)n2C [Example 124, 1-(3,4-dichlorobenzyl)-8-(1-(hydroxymethyl)cyclopentylamino)-3,7-dimethyl-1H-purine-2,6(3H,7H)-dione] |
| 1000 to 5000 | Cn1c(NCCC#N)nc2c1c(=O)n(Cc1ccc(Cl)c(Cl)c1)c(=O)n2C [Example 131, 3-(1-(3,4-dichlorobenzyl)-3,7-dimethyl-2,6-dioxo-2,3,6,7-tetrahydro-1H-purin-8-ylamino)propanenitrile] |
| 1000 to 5000 | Cn1c(Nc2cn[nH]c2)nc2c1c(=O)n(Cc1ccc(Cl)c(Cl)c1)c(=O)n2C [Example 135] |
| 1000 to 5000 | Cn1c(NCc2ccccn2)nc2c1c(=O)n(Cc1ccc(Cl)c(Cl)c1)c(=O)n2C [Example 139, 1-(3,4-dichlorobenzyl)-3,7-dimethyl-8-(pyridin-2-ylmethylamino)-1H-purine-2,6(3H,7H)-dione] |

More lines, now with the values behind:

| Structure (SMILES) | IC50 [nM] |
| --- | --- |
| Cn1c(N[C@@H]2CCC[C@@H]2C(=O)O)nc2c1c(=O)n(Cc1ccc(Cl)c(Cl)c1)c(=O)n2C [Example 111, (1S,2R)-2-(1-(3,4-dichlorobenzyl)-3,7-dimethyl-2,6-dioxo-2,3,6,7-tetrahydro-1H-purin-8-ylamino)cyclopentanecarboxylic acid] | 10 to 1000 |
| Cn1c(NCc2cnccn2)nc2c1c(=O)n(Cc1ccc(Cl)c(Cl)c1)c(=O)n2C [Example 116, 1-(3,4-dichlorobenzyl)-3,7-dimethyl-8-(pyrazin-2-ylmethylamino)-1H-purine-2,6(3H,7H)-dione] | 1000 to 5000 |
| Cn1c(NCc2ccncc2)nc2c1c(=O)n(Cc1ccc(Cl)c(Cl)c1)c(=O)n2C [Example 118, 1-(3,4-dichlorobenzyl)-3,7-dimethyl-8-(pyridin-4-ylmethylamino)-1H-purine-2,6(3H,7H)-dione] | 1000 to 5000 |
| Cn1c(Nc2cccnn2)nc2c1c(=O)n(Cc1ccc(Cl)c(Cl)c1)c(=O)n2C [Example 122, 1-(3,4-dichlorobenzyl)-3,7-dimethyl-8-(pyridazin-3-ylamino)-1H-purine-2,6(3H,7H)-dione] | 10 to 1000 |
| Cn1c(Nc2ccncc2)nc2c1c(=O)n(Cc1ccc(Cl)c(Cl)c1)c(=O)n2C [Example 125, 1-(3,4-dichlorobenzyl)-3,7-dimethyl-8-(pyridin-4-ylamino)-1H-purine-2,6(3H,7H)-dione] | 10 to 1000 |
| Cn1c(Nc2cnccn2)nc2c1c(=O)n(Cc1ccc(Cl)c(Cl)c1)c(=O)n2C [Example 126, 1-(3,4-dichlorobenzyl)-3,7-dimethyl-8-(pyrazin-2-ylamino)-1H-purine-2,6(3H,7H)-dione] | 10 to 1000 |
| Cn1c(Nc2ccccc2)nc2c1c(=O)n(Cc1ccc(Cl)c(Cl)c1)c(=O)n2C [Example 127, 1-(3,4-dichlorobenzyl)-3,7-dimethyl-8-(phenylamino)-1H-purine-2,6(3H,7H)-dione] | 1000 to 5000 |
| Cn1c(NC2(CO)CCCC2)nc2c1c(=O)n(Cc1ccc(C(F)(F)F)cc1)c(=O)n2C [Example 128, 8-(1-(hydroxymethyl)cyclopentylamino)-3,7-dimethyl-1-(4-(trifluoromethyl)benzyl)-1H-purine-2,6(3H,7H)-dione] | > 10000 |
| C[C@@H](Nc1nc2c(c(=O)n(Cc3ccc(Cl)c(Cl)c3)c(=O)n2C)n1C)C(=O)O [Example 129, (R)-2-(1-(3,4-dichlorobenzyl)-3,7-dimethyl-2,6-dioxo-2,3,6,7-tetrahydro-1H-purin-8-ylamino)propanoic acid] | 1000 to 5000 |
| Cn1c(Nc2cccc(C#N)c2)nc2c1c(=O)n(Cc1ccc(Cl)c(Cl)c1)c(=O)n2C [Example 130, 3-(1-(3,4-dichlorobenzyl)-3,7-dimethyl-2,6-dioxo-2,3,6,7-tetrahydro-1H-purin-8-ylamino)benzonitrile] | 1000 to 5000 |
| Cn1c(NCC(=O)O)nc2c1c(=O)n(Cc1ccc(Cl)c(Cl)c1)c(=O)n2C [Example 134, 2-(1-(3,4-dichlorobenzyl)-3,7-dimethyl-2,6-dioxo-2,3,6,7-tetrahydro-1H-purin-8-ylamino)acetic acid] | 1000 to 5000 |
| Cn1c(-n2cc(N)cn2)nc2c1c(=O)n(Cc1ccc(Cl)c(Cl)c1)c(=O)n2C [Example 136] | 10 to 1000 |
| Cn1c(NCc2ccccc2)nc2c1c(=O)n(Cc1ccc(Cl)c(Cl)c1)c(=O)n2C [Example 137, 8-(benzylamino)-1-(3,4-dichlorobenzyl)-3,7-dimethyl-1H-purine-2,6(3H,7H)-dione] | 5000 to 10000 |
| Cn1c(Nc2nccc(O)n2)nc2c1c(=O)n(Cc1ccc(Cl)c(Cl)c1)c(=O)n2C [Example 138, 1-(3,4-dichlorobenzyl)-8-(4-hydroxypyrimidin-2-ylamino)-3,7-dimethyl-1H-purine-2,6(3H,7H)-dione] | 10 to 1000 |
| Cn1c(Nc2cc[nH]c(=O)n2)nc2c1c(=O)n(Cc1ccc(Cl)c(Cl)c1)c(=O)n2C [Example 140, 1-(3,4-dichlorobenzyl)-3,7-dimethyl-8-(2-oxo-1,2-dihydropyrimidin-4-ylamino)-1H-purine-2,6(3H,7H)-dione] | 10 to 1000 |
| Cn1c(Nc2cc[nH]n2)nc2c1c(=O)n(Cc1ccc(Cl)c(Cl)c1)c(=O)n2C [Example 141, 8-(1H-pyrazol-3-ylamino)-1-(3,4-dichlorobenzyl)-3,7-dimethyl-1H-purine-2,6(3H,7H)-dione] | 1000 to 5000 |

Source: patent US12187728B2 (Raze Therapeutics, Inc., priority 2015, dated 2025)
